Data: publication PMC11571015, “Hybrids of Membrane-Translocating Antimicrobial Peptides Show Enhanced Activity through Membrane Permeabilization” (ACS Medicinal Chemistry Letters, 2024)
≈ marks a conversion by molar mass, not a printed value.

Assays:
[1] = system: B. subtilis; assay type: cell-based, B. subtilis (ATCC #6051); details: 1 h, pH 7.4
Procedure: (§1) Supplemental Information for Trevellin et al.
(§2) Peptide design and preparation […]
(§3) synthesized by GenScript (Piscataway, NJ) at >95% purity determined by HPLC and dissolved in DI water. Concentrations were measured by triplicate tryptophan absorbance readings at 280 nm (ε=5700 M–1cm–1, l=1 cm) using a ThermoScientific NanoDrop 2000 (Waltham, MA). Buforin II (BF2) included an F10W mutation used in many previous studies1-5 to allow for concentration measurements.
(§4) Bacteria included E. coli (Top10 Strain, Invitrogen/ThermoFisher) containing a plasmid for ampicillin resistance (Novagen) and/or B. subtilis (ATCC #6051). Bacterial growth was performed in TSB (trypticase soy broth) prepared at 3% w/v (30 g of media in 1 L) from BD Difco unless otherwise noted. Overnight cultures were picked from petri dishes or frozen stock and grown for 14-16 hours at 37 °C in TSB with shaking. E. coli overnight cultures were incubated with 25 μg/mL ampicillin. The overnight cultures were then diluted 1:100 in 25 mL TSB and incubated at 37 °C with shaking for 2.5 h. The culture was pelleted via centrifugation at 1500×g for 10 min at room temperature and resuspended in sterile cold wash buffer (10 mM sodium phosphate buffer and 10 mM sodium chloride, pH 7.4). These resuspended bacteria were then used for radial diffusion, microbroth dilution, and propidium iodide assays. […]
(§5) Microbroth dilution assay
(§6) Microbroth dilution assays were used to determine the minimum inhibitory concentration (MIC) of each peptide for E. coli and B. subtilis (ATCC #6051). A 1:2 serial dilution was prepared for a peptide across the top row of a 96-well plate. 100 μL of bacterial suspension (4 × 10^6 CFU/mL, diluted in sterile wash buffer, 10 mM sodium phosphate buffer and 10 mM sodium chloride, pH 7.4) and 10 μL of peptide were mixed to each well in subsequent rows of the plate. The 11 effective peptide concentrations ranged from 18.2 μM to 1.8x10-2 μM, with DI water used as a control, and each concentration was tested in triplicate per plate. After the bacteria and peptide mixtures were incubated in plates at 37°C for 1 hour, 100 μL of 6% w/v TSB was added to each well. For wells containing E. coli, ampicillin was added at a final concentration of 25 µg/ml. The plate was then incubated overnight (18-24 h) at 37°C. After incubation, OD600nm were measured using the SpectraMax M3 microplate reader (Molecular Devices). […]
(§7) relative permeability = F5/F0
(§8) Each peptide was tested with bacteria grown from at least three distinct overnight […]
(§9) The MTS assay is a colorimetric viability assay for mammalian cells. HEK 293 cells (ATCC CRL-1573) were grown in complete growth medium (EMEM, 10% fetal bovine serum, 1% penicillin-streptomycin). Cells were cultured in a T-75 maintenance flask, fed with fresh media every 1-2 days, and passaged approximately every 5-7 days once cells reached 70-90% confluence. During passaging, HEK 293 cells were plated in a 96-well plate at 20,000 cells/well and incubated for 4-6 hours (37 °C, 95% humidity, 5% CO2). Each column of cells (8 replicates) was then incubated overnight with 18.2 µM peptide or a control. After incubation, media was aspirated and refreshed for each well, […]

[2] = system: E. coli; assay type: cell-based, E. coli (Top10 Strain); details: median MIC; microbroth dilution, 1:2 serial dilution 18.2 to 1.8x10-2 μM, 4 × 10^6 CFU/mL, 1 h 37°C in wash buffer pH 7.4, then TSB overnight (18-24 h), OD600; triplicate per plate; mixture: each peptide at the reported concentration
Procedure: as §1, §2, §3, §4, §5, §6, §7, §8, §9

SMILES | MIC against B. subtilis [1] [µM] | MIC against E. coli [2] [µM]
CC[C@H](C)[C@H](NC(=O)[C@H](CCCNC(=N)N)NC(=O)[C@@H](NC(=O)[C@H](CCCCN)NC(=O)[C@H](CCCCN)NC(=O)[C@H](CC(N)=O)NC(=O)[C@H](CC(=O)O)NC(=O)[C@H](CCCNC(=N)N)NC(=O)[C@H](C)NC(=O)[C@H](C)NC(=O)[C@H](CCCCN)NC(=O)[C@H](CCCNC(=N)N)NC(=O)[C@H](CC(C)C)NC(=O)[C@H](CC(C)C)NC(=O)[C@H](CCCNC(=N)N)NC(=O)[C@H](Cc1c[nH]cn1)NC(=O)[C@@H](NC(=O)[C@H](CCCNC(=N)N)NC(=O)CNC(=O)[C@@H](NC(=O)[C@@H]1CCCN1C(=O)[C@H](Cc1c[nH]c2ccccc12)NC(=O)[C@H](CCC(N)=O)NC(=O)[C@H](CC(C)C)NC(=O)CNC(=O)[C@H](C)NC(=O)[C@H](CCCNC(=N)N)NC(=O)[C@H](CO)NC(=O)[C@H](CO)NC(=O)[C@H](CCCNC(=N)N)NC(=O)[C@@H](N)[C@@H](C)O)C(C)C)C(C)C)[C@@H](C)O)C(=O)N[C@@H](Cc1c[nH]c2ccccc12)C(=O)N1CCC[C@H]1C(=O)N[C@@H](CCCNC(=N)N)C(=O)N[C@@H](Cc1c[nH]cn1)C(=O)N[C@@H](CC(C)C)C(=O)N[C@@H](CCC(N)=O)C(=O)N[C@@H](CC(C)C)C(=O)N[C@@H](C)C(=O)N[C@H](C(=O)N[C@@H](CCCNC(=N)N)C(=O)N[C@@H](CC(N)=O)C(=O)O)C(C)C [BF2-A-DesHDAP1 (BAD)] | 4.6 (≈ 23 µg/mL) | 1.1 (≈ 5.5 µg/mL)
CC[C@H](C)[C@H](NC(=O)[C@H](CCCNC(=N)N)NC(=O)[C@@H](NC(=O)[C@H](CCCCN)NC(=O)[C@H](CCCCN)NC(=O)[C@H](CC(N)=O)NC(=O)[C@H](CC(=O)O)NC(=O)[C@H](CCCNC(=N)N)NC(=O)[C@H](C)NC(=O)[C@H](CCCCN)NC(=O)[C@H](CCCNC(=N)N)NC(=O)[C@H](CC(C)C)NC(=O)[C@H](CC(C)C)NC(=O)[C@H](CCCNC(=N)N)NC(=O)[C@H](Cc1c[nH]cn1)NC(=O)[C@@H](NC(=O)[C@H](CCCNC(=N)N)NC(=O)CNC(=O)[C@@H](NC(=O)[C@@H]1CCCN1C(=O)[C@H](Cc1c[nH]c2ccccc12)NC(=O)[C@H](CCC(N)=O)NC(=O)[C@H](CC(C)C)NC(=O)CNC(=O)[C@H](C)NC(=O)[C@H](CCCNC(=N)N)NC(=O)[C@H](CO)NC(=O)[C@H](CO)NC(=O)[C@H](CCCNC(=N)N)NC(=O)[C@@H](N)[C@@H](C)O)C(C)C)C(C)C)[C@@H](C)O)C(=O)N[C@@H](Cc1c[nH]c2ccccc12)C(=O)N1CCC[C@H]1C(=O)N[C@@H](CCCNC(=N)N)C(=O)N[C@@H](Cc1c[nH]cn1)C(=O)N[C@@H](CC(C)C)C(=O)N[C@@H](CCC(N)=O)C(=O)N[C@@H](CC(C)C)C(=O)N[C@@H](C)C(=O)N[C@H](C(=O)N[C@@H](CCCNC(=N)N)C(=O)N[C@@H](CC(N)=O)C(=O)O)C(C)C [BF2-DesHDAP1 (BD)] | 4.6 (≈ 22.7 µg/mL) | 1.1 (≈ 5.42 µg/mL)
CC[C@H](C)[C@H](NC(=O)[C@H](CCCNC(=N)N)NC(=O)[C@@H](NC(=O)[C@H](CCCCN)NC(=O)[C@H](CCCCN)NC(=O)[C@H](CC(N)=O)NC(=O)[C@H](CC(=O)O)NC(=O)[C@H](CCCNC(=N)N)NC(=O)[C@H](C)NC(=O)[C@@H]1CCCN1C(=O)[C@H](CCCCN)NC(=O)[C@H](CCCNC(=N)N)NC(=O)[C@H](CC(C)C)NC(=O)[C@H](CC(C)C)NC(=O)[C@H](CCCNC(=N)N)NC(=O)[C@H](Cc1c[nH]cn1)NC(=O)[C@@H](NC(=O)[C@H](CCCNC(=N)N)NC(=O)CNC(=O)[C@@H](NC(=O)[C@@H]1CCCN1C(=O)[C@H](Cc1c[nH]c2ccccc12)NC(=O)[C@H](CCC(N)=O)NC(=O)[C@H](CC(C)C)NC(=O)CNC(=O)[C@H](C)NC(=O)[C@H](CCCNC(=N)N)NC(=O)[C@H](CO)NC(=O)[C@H](CO)NC(=O)[C@H](CCCNC(=N)N)NC(=O)[C@@H](N)[C@@H](C)O)C(C)C)C(C)C)[C@@H](C)O)C(=O)N[C@@H](Cc1c[nH]c2ccccc12)C(=O)N1CCC[C@H]1C(=O)N[C@@H](CCCNC(=N)N)C(=O)N[C@@H](Cc1c[nH]cn1)C(=O)N[C@@H](CC(C)C)C(=O)N[C@@H](CCC(N)=O)C(=O)N[C@@H](CC(C)C)C(=O)N[C@@H](C)C(=O)N[C@H](C(=O)N[C@@H](CCCNC(=N)N)C(=O)N[C@@H](CC(N)=O)C(=O)O)C(C)C [BF2-P-DesHDAP1 (BPD)] | 4.6 (≈ 23.1 µg/mL) | 1.1 (≈ 5.53 µg/mL)
CC(C)C[C@H](NC(=O)CNC(=O)[C@H](C)NC(=O)[C@H](CCCNC(=N)N)NC(=O)[C@H](CO)NC(=O)[C@H](CO)NC(=O)[C@H](CCCNC(=N)N)NC(=O)[C@@H](N)[C@@H](C)O)C(=O)N[C@@H](CCC(N)=O)C(=O)N[C@@H](Cc1c[nH]c2ccccc12)C(=O)N1CCC[C@H]1C(=O)N[C@H](C(=O)NCC(=O)N[C@@H](CCCNC(=N)N)C(=O)N[C@H](C(=O)N[C@@H](Cc1c[nH]cn1)C(=O)N[C@@H](CCCNC(=N)N)C(=O)N[C@@H](CC(C)C)C(=O)N[C@@H](CC(C)C)C(=O)N[C@@H](CCCNC(=N)N)C(=O)N[C@@H](CCCCN)C(=O)O)C(C)C)C(C)C [Buforin II (BF2), reference compound] |  | >18.2
CC[C@H](C)[C@H](NC(=O)[C@H](CCCNC(=N)N)NC(=O)[C@@H](NC(=O)[C@H](CCCCN)NC(=O)[C@H](CCCCN)NC(=O)[C@H](CC(N)=O)NC(=O)[C@H](CC(=O)O)NC(=O)[C@H](CCCNC(=N)N)NC(=O)[C@H](C)N)[C@@H](C)O)C(=O)N[C@@H](Cc1c[nH]c2ccccc12)C(=O)N1CCC[C@H]1C(=O)N[C@@H](CCCNC(=N)N)C(=O)N[C@@H](Cc1c[nH]cn1)C(=O)N[C@@H](CC(C)C)C(=O)N[C@@H](CCC(N)=O)C(=O)N[C@@H](CC(C)C)C(=O)N[C@@H](C)C(=O)N[C@H](C(=O)N[C@@H](CCCNC(=N)N)C(=O)N[C@@H](CC(N)=O)C(=O)N[C@@H](C)C(=O)N[C@H](C(=O)N[C@@H](CCCNC(=N)N)C(=O)N[C@@H](CO)C(=O)N[C@@H](CO)C(=O)N[C@@H](CCCNC(=N)N)C(=O)N[C@@H](C)C(=O)NCC(=O)N[C@@H](CC(C)C)C(=O)N[C@@H](CCC(N)=O)C(=O)N[C@@H](Cc1c[nH]c2ccccc12)C(=O)N1CCC[C@H]1C(=O)N[C@H](C(=O)NCC(=O)N[C@@H](CCCNC(=N)N)C(=O)N[C@H](C(=O)N[C@@H](Cc1c[nH]cn1)C(=O)N[C@@H](CCCNC(=N)N)C(=O)N[C@@H](CC(C)C)C(=O)N[C@@H](CC(C)C)C(=O)N[C@@H](CCCNC(=N)N)C(=O)N[C@@H](CCCCN)C(=O)O)C(C)C)C(C)C)[C@@H](C)O)C(C)C [DesHDAP1-A-BF2 (DAB)] | 4.6 (≈ 23 µg/mL) | 1.1 (≈ 5.5 µg/mL)
CC[C@H](C)[C@H](NC(=O)[C@H](CCCNC(=N)N)NC(=O)[C@@H](NC(=O)[C@H](CCCCN)NC(=O)[C@H](CCCCN)NC(=O)[C@H](CC(N)=O)NC(=O)[C@H](CC(=O)O)NC(=O)[C@H](CCCNC(=N)N)NC(=O)[C@H](C)N)[C@@H](C)O)C(=O)N[C@@H](Cc1c[nH]c2ccccc12)C(=O)N1CCC[C@H]1C(=O)N[C@@H](CCCNC(=N)N)C(=O)N[C@@H](Cc1c[nH]cn1)C(=O)N[C@@H](CC(C)C)C(=O)N[C@@H](CCC(N)=O)C(=O)N[C@@H](CC(C)C)C(=O)N[C@@H](C)C(=O)N[C@H](C(=O)N[C@@H](CCCNC(=N)N)C(=O)N[C@@H](CC(N)=O)C(=O)N[C@H](C(=O)N[C@@H](CCCNC(=N)N)C(=O)N[C@@H](CO)C(=O)N[C@@H](CO)C(=O)N[C@@H](CCCNC(=N)N)C(=O)N[C@@H](C)C(=O)NCC(=O)N[C@@H](CC(C)C)C(=O)N[C@@H](CCC(N)=O)C(=O)N[C@@H](Cc1c[nH]c2ccccc12)C(=O)N1CCC[C@H]1C(=O)N[C@H](C(=O)NCC(=O)N[C@@H](CCCNC(=N)N)C(=O)N[C@H](C(=O)N[C@@H](Cc1c[nH]cn1)C(=O)N[C@@H](CCCNC(=N)N)C(=O)N[C@@H](CC(C)C)C(=O)N[C@@H](CC(C)C)C(=O)N[C@@H](CCCNC(=N)N)C(=O)N[C@@H](CCCCN)C(=O)O)C(C)C)C(C)C)[C@@H](C)O)C(C)C [DesHDAP1-BF2 (DB)] | 4.6 (≈ 22.7 µg/mL) | 1.1 (≈ 5.42 µg/mL)
